Measurements as given in patent US6320051A, “Quinolones used as MRS inhibitors and bactericides” (SmithKline Beecham plc, priority 1998, dated 2001).
Values after ≈ are worked out from the molar mass of the structure shown. Counter-ions that a name gives are not always drawn. Like-named read-outs stand apart in the source and are kept apart here.

Legend:
[1] = tested on: S. aureus, S. pneunmoniae, and E. faecalis; assay: Antibacterial activity, standard MIC assay modified by inclusion of cyclodextrin; type: cell-based; conditions: read-out: MIC against some strains of S. aureus, S. pneumoniae and E. faecalis
Procedure: (§1) Compounds of the present invention were assayed for antibacterial activity against a range of pathogenic organisms (strains of S aureus, S pneumoniae, E faecalis, H influenzae and M catarrhalis) in a standard MIC assay modified by the inclusion of cyclodextrin, to assist with solubility.

[2] = tested on: M. Catarrhalis; assay: as above; type: cell-based; conditions: Moraxella catarrhalis; MIC assay with cyclodextrin; range over the listed Examples; read-out: MIC against M. Catarrhalis
Procedure: as §1

[3] = tested on: H. influenzae; assay: as above; type: cell-based; conditions: MIC assay with cyclodextrin
Procedure: as §1

[4] = tested on: isoleucyl t-RNA synthetase; conditions: background of the invention; cited from earlier work
[5] = some strains of the organisms, MIC assay with cyclodextrin

O=c1cc(NC[C@H]2CCC[C@@H]2NCc2cc(Br)c(Br)s2)[nH]c2ccccc12 [Example 74, 2-{[(1R,2S)-2-(4,5-Dibromo-2-thiophenemethylamino)-cyclopentylmethyl]amino}-1H-quinolin-4-one]
MIC [1, 5]: < 1 µg/mL
MIC [2]: 2 to 64 µg/mL (≈ 3.91 to 125 µM)

O=c1cc(NCCCNCc2cc(Br)c(Br)c(Br)c2)[nH]c2ccccc12 [Example 42, 2-[3-(3,4,5-Tribromobenzylamino)prop-1-ylamino]-1H-quinolin-4-one]
MIC [1, 5]: < 1 µg/mL
MIC [2]: 2 to 64 µg/mL (≈ 3.68 to 118 µM)

O=c1cc(NCCCNCc2cc(Cl)cc(Cl)c2OCc2ccccc2)[nH]c2ccccc12 [Example 39, 2-[3-(2-Benzyloxy-3,5-dichlorobenzylamino)prop-1-ylamino]-1H-quinolin-4-one]
MIC [1, 5]: < 1 µg/mL
MIC [2]: 2 to 64 µg/mL (≈ 4.15 to 133 µM)

O=c1cc(NCCCNC2CCCc3c2[nH]c2ccccc32)[nH]c2ccccc12 (stereo not shown) [Example 64, 2-[3-(2,3,4,9-Tetrahydro-1H-carbazol-1-ylamino)prop-1-ylamino]-1H-quinolin-4-one]
antibacterial activity against H. influenzae [3]: active

Cl.O=c1cc(NCCCNCc2ccc(Cl)c(Cl)c2)[nH]c2ccccc12 [Example 18, 2-[3-(3,4-Dichlorobenzylamino)prop-1-ylamino]-1H-quinolin-4-one hydrochloride]
MIC [1]: < 1 µg/mL
MIC [2]: 2 to 64 µg/mL

O=c1cc(NCCCNCc2cc(Br)c(Br)s2)[nH]c2ccccc12 [Example 37]
MIC [1, 5]: < 1 µg/mL
MIC [2]: 2 to 64 µg/mL (≈ 4.24 to 136 µM)

O=c1cc(NC[C@H]2CCC[C@@H]2NCc2cc(Br)cc(Br)c2)[nH]c2ccccc12 [Example 73, 2-{[(1R,2S)-2-(3,5-Dibromobenzylamino)cyclopentyl-methyl]amino}-1H-quinolin-4-one]
MIC [1, 5]: < 1 µg/mL
MIC [2]: 2 to 64 µg/mL (≈ 3.96 to 127 µM)

O=c1cc(NCCCNC2CCCc3c2cc(Cl)c(Cl)c3Cl)[nH]c2ccccc12 (stereo not shown) [Example 53, 2-[3-(5,6,7-Trichloro-1,2,3,4-tetrahydronaphth-1-ylamino)prop-1-ylamino]-1H-quinolin-4-one]
MIC [1]: < 1 µg/mL
MIC [2]: 2 to 64 µg/mL (≈ 4.44 to 142 µM)

O=c1cc(NCCCNCc2cc(Br)cc(Br)c2)[nH]c2ccccc12 [Example 40, 2-[3-(3,5-Dibromobenzylamino)prop-1-ylamino]-1H-quinolin-4-one]
MIC [1, 5]: < 1 µg/mL
MIC [2]: 2 to 64 µg/mL (≈ 4.3 to 138 µM)

O=c1cc(NCCCNC2CCc3c(Cl)sc(Cl)c32)[nH]c2ccccc12 (stereo not shown) [Example 47, 2-[3-(1,3-Dichloro-5,6-dihydro-4H-cyclopenta[c]thiophen-4-ylamino]prop-1-ylamino}-1H-quinolin-4-one]
MIC [1, 5]: < 1 µg/mL
MIC [2]: 2 to 64 µg/mL (≈ 4.9 to 157 µM)

C=CCOc1c(Cl)cc(Cl)cc1CNCCCNc1cc(=O)c2ccccc2[nH]1 [Example 68, 2-[3-(2-Allyloxy-3,5-dichlorobenzylamino)prop-1-ylamino]-1H-quinolin-4-one]
MIC [1, 5]: < 1 µg/mL
MIC [2]: 2 to 64 µg/mL (≈ 4.63 to 148 µM)

CCOc1c(Br)cc(Br)cc1CN[C@H]1CCC[C@@H]1CNc1cc(=O)c2ccccc2[nH]1 [Example 75, 2-{[(1R,2S)-2-(3,5-Dibromo-2-ethoxybenzylamino)cyclopentyl-methyl]amino}-1H-quinolin-4-one]
MIC [1, 5]: < 1 µg/mL
MIC [2]: 2 to 64 µg/mL (≈ 3.64 to 117 µM)

CC(C)(C)OC(=O)COc1c(Cl)cc(Cl)cc1CNCCCNc1cc(=O)c2ccccc2[nH]1 [Example 67, 2-[3-(2-tert-Butoxycarbonylmethoxy-3,5-dichlorobenzylamino)prop-1-ylamino]-1H-quinolin-4-one]
MIC [1, 5]: < 1 µg/mL
MIC [2]: 2 to 64 µg/mL (≈ 3.95 to 126 µM)

O=c1cc(NCC2CCCC2NCc2ccc(Cl)c(Cl)c2)[nH]c2ccccc12 (stereo not shown) [Example 60, 2-{[2-(3,4-Dichlorobenzylamino)cyclopentyl]methylamino}-1H-quinolin-4-one]
MIC [1]: < 1 µg/mL
MIC [2]: 2 to 64 µg/mL (≈ 4.8 to 154 µM)

O=c1cc(NCCCNC2CCCc3c(Cl)cc(Cl)cc32)[nH]c2ccccc12 (stereo not shown) [Example 51, 2-[3-(5,7-Dichloro-1,2,3,4-tetrahydronaphth-1-ylamino)prop-1-ylamino]-1H-quinolin-4-one]
MIC [1]: < 1 µg/mL
MIC [2]: 2 to 64 µg/mL (≈ 4.8 to 154 µM)

O=c1cc(NCCCNCc2cc(Cl)cc(Cl)c2Cl)[nH]c2ccccc12 [Example 45, 2-[3-(2,3,5-Trichliorobenzylamino)prop-1-ylamino]-1H-quinolin-4-one dihydrochloride]
MIC [1, 5]: < 1 µg/mL
MIC [2]: 2 to 64 µg/mL

Nc1c(Br)cc(Br)cc1CNCCCNc1cc(=O)c2ccccc2[nH]1 [Example 77, 2-[3-(2-Amino-3,5-dibromobenzylamino)prop-1-ylamino]-1H-quinolin-4-one]
MIC [1, 5]: < 1 µg/mL
MIC [2]: 2 to 64 µg/mL (≈ 4.16 to 133 µM)

O=c1cc(NC[C@H]2CCC[C@@H]2NCc2ccc(Cl)c(Cl)c2)[nH]c2ccccc12 [Example 71, 2-{[(1R,2S)-2-(3,4-Dichlorobenzylamino)cyclopentylmethyl]amino}-1H-quinolin-4-one]
MIC [1]: < 1 µg/mL
MIC [2]: 2 to 64 µg/mL (≈ 4.8 to 154 µM)

O=c1cc(NCCCNCc2cc(I)cc(I)c2)[nH]c2ccccc12 [Example 36, 2-[3-(3,5-Diiodobenzylamino)prop-1-ylamino]-1H-quinolin-4-one]
MIC [1, 5]: < 1 µg/mL
MIC [2]: 2 to 64 µg/mL (≈ 3.58 to 114 µM)

Cc1c(Br)cc(CNCCCNc2cc(=O)c3ccccc3[nH]2)cc1Br [Example 41, 2-[3-(3,5-Dibromo-4-methylbenzylamino)prop-1-ylamino]-1H-quinolin-4-one]
MIC [1, 5]: < 1 µg/mL
MIC [2]: 2 to 64 µg/mL (≈ 4.17 to 134 µM)

C/C(=C\C(=O)OCCCCCCCCC(=O)O)C[C@@H]1OC[C@H](C[C@@H]2O[C@H]2[C@@H](C)[C@H](C)O)[C@@H](O)[C@H]1O [Mupirocin]
inhibition of isoleucyl t-RNA synthetase [4]: inhibitor

O=c1cc(NCCCNCc2cc(Br)cc(I)c2)[nH]c2ccccc12 [Example 43, 2-[3-(3-Bromo-5-iodobenzylamino)prop-1-ylamino]-1H-quinolin-4-one]
MIC [1, 5]: < 1 µg/mL
MIC [2]: 2 to 64 µg/mL (≈ 3.9 to 125 µM)

CCOc1c(Br)cc(Br)cc1CNCCCNc1cc(=O)c2ccccc2[nH]1.Cl.Cl [Example 46, 2-[3-(3,5-Dibromo-2-ethoxybenzylamino)prop-1-ylamino]-1H-quinolin-4-one dihydrochloride]
MIC [1, 5]: < 1 µg/mL
MIC [2]: 2 to 64 µg/mL

O=c1cc(NCCCNCc2cc(Cl)cc(Cl)c2OCCc2ccccc2)[nH]c2ccccc12 [Example 69, 2-[3-(3,5-Dichloro-2-phenethoxybenzylamino)propylamino]-1H-quinolin-4-one]
MIC [1, 5]: < 1 µg/mL
MIC [2]: 2 to 64 µg/mL (≈ 4.03 to 129 µM)

O=c1cc(NCCCNCc2cc3c(Cl)cc(Cl)cc3[nH]2)[nH]c2ccccc12 [Example 76, 2-[3-(4,6-Dichloroindol-2-ylmethylamino)prop-1-ylamino]-1H-quinolin-4-one]
MIC [1, 5]: < 1 µg/mL
MIC [2]: 2 to 64 µg/mL (≈ 4.82 to 154 µM)

O=c1cc(NCCCNC2CCc3c(Cl)cc(Cl)cc32)[nH]c2ccccc12 (stereo not shown) [Example 55, 2-[3-(4,6-Dichloroindan-1-ylamino)prop-1-ylamino]-1H-quinolin-4-one]
MIC [1]: < 1 µg/mL
MIC [2]: 2 to 64 µg/mL (≈ 4.97 to 159 µM)

O=c1cc(NCCCNCc2ccc(Cl)c(C(F)(F)F)c2)[nH]c2ccccc12 [Example 38, 2-[3-(4-Chloro-3-trifluoromethylbenzylamino)prop-1-ylamino]-1H-quinolin-4-one]
MIC [1, 5]: < 1 µg/mL
MIC [2]: 2 to 64 µg/mL (≈ 4.88 to 156 µM)
